Test results as given in US7179840B2, “Furancarboxamides” (Bayer CropScience AG, priority 2002, dated 2007).

What was measured:
Sphaerotheca fuliginea = experiment: Sphaerotheca Test (Cucumber)/Protective; format: in vivo; settings: protective, application rate 750 g/ha, evaluation 7 days after inoculation
Experimental: Sphaerotheca Test (Cucumber)/Protective
(§1) To produce a suitable preparation of active compound, 1 part by weight of active compound is mixed with the stated amounts of solvent and emulsifier, and the concentrate is diluted with water to the desired concentration.
To test for protective activity, young cucumber plants are sprayed with the preparation of active compound at the stated application rate. 1 day after the treatment, the plants are inoculated with a spore suspension of Sphaerotheca fuliginea. The plants are then placed in a greenhouse at 70% relative atmospheric humidity and temperature of 23° C.
(§2) Evaluation is carried out 7 days after the inoculation. 0% means an efficacy which corresponds to that of the control, whereas efficacy of 100% means that no infection is observed.

[1] = logP determination by HPLC (reversed-phase C18), acidic range; format: physicochemical; settings: pH 2.3, C18, 43° C., 0.1% aqueous phosphoric acid/acetonitrile
Experimental: The logP values given in the Preparation Examples were determined in accordance with EEC Directive 79/831 Annex V.A8 by HPLC (High Performance Liquid Chromatography) using a reversed-phase column (C 18). Temperature: 43° C.
Mobile phases for the determination in the acidic range: 0.1% aqueous phosphoric acid, acetonitrile; linear gradient from 10% acetonitrile to 90% acetonitrile.
Calibration was carried out using unbranched alkan-2-ones (having 3 to 16 carbon atoms) with known logP values (determination of the logP values by the retention times using linear interpolation between two successive alkanones).

Alternaria solani = experiment: Alternaria Test (Tomato)/Protective; format: in vivo; settings: 48 h, protective, application rate 100 g/ha, evaluation 2 days after inoculation, read-out: Efficacy in %
Experimental: Alternaria Test (Tomato)/Protective
as §1
To test for protective activity, young tomato plants are sprayed with the preparation of active compound at the stated application rate. 1 day after the treatment, the plants are inoculated with an aqueous spore suspension of Alternaria solani. The plants are then placed in an incubation cabin at about 20° C. and 100% relative atmospheric humidity.
Evaluation is carried out 2 days after the inoculation. 0% means an efficacy which corresponds to that of the control, whereas efficacy of 100% means that no infection is observed.

Venturia inaequalis = experiment: Venturia Test (Apple)/Protective; format: in vivo; settings: 240 h, protective, application rate 100 g/ha, evaluation 10 days after inoculation, read-out: Efficacy in %
Experimental: Venturia Test (Apple)/Protective
as §1
To test for protective activity, young plants are sprayed with the preparation of active compound at the stated application rate. After the spray coating has dried on, the plants are inoculated with an aqueous conidia suspension of the apple scab pathogen Venturia inaequalis and then remained in an incubation cabin at about 20° C. and 100% relative atmospheric humidity for 1 day.
The plants are then placed in a greenhouse at about 21° C. and a relative atmospheric humidity of about 90%.
(§3) Evaluation is carried out 10 days after the inoculation. 0% means an efficacy which corresponds to that of the control, whereas efficacy of 100% means that no infection is observed.

Podosphaera leucotricha = experiment: Podosphaera Test (Apple)/Protective; format: in vivo; settings: 240 h, protective, application rate 100 g/ha, evaluation 10 days after inoculation, read-out: Efficacy in %
Experimental: Podosphaera Test (Apple)/Protective
as §1
To test for protective activity, young plants are sprayed with the preparation of active compound at the stated application rate. After the spray coating has dried on, the plants are inoculated with an aqueous spore suspension of the apple mildew pathogen Podosphaera leucotricha. The plants are then placed in a greenhouse at about 23° C. and a relative atmospheric humidity of about 70%.
as §3

Pyrenophora teres = Pyrenophora teres Test (Barley)/Protective; format: in vivo; settings: protective, application rate 500 g/ha, evaluation 7 days after inoculation
Experimental: Pyrenophora teres Test (Barley)/Protective
as §1
To test for protective activity, young plants are sprayed with the preparation of active compound at the stated application rate. After the spray coating has dried on, the plants are sprayed with a conidia suspension of Pyrenophora teres. The plants remain in an incubation cabin at 20° C. and 100% relative atmospheric humidity for 48 h. The plants are then placed in a greenhouse at a temperature of about 20° C. and a relative atmospheric humidity of about 80%.
as §2

Structure (SMILES) | Efficacy in % (Sphaerotheca fuliginea) [%] | chromatographic logP [1] | pest or weed control at 100 g/ha (Alternaria solani) [%] | pest or weed control at 100 g/ha (Venturia inaequalis) [%] | pest or weed control at 100 g/ha (Podosphaera leucotricha) [%] | Efficacy in % (Pyrenophora teres) [%] | chromatographic logP ([1]; reversed-phase C18 HPLC column)
Cc1occc1C(=O)Nc1ccccc1-c1cc(Cl)cc(Cl)c1 [Example 16] | 90 | 3.9 |  |  |  |  | 
Cc1occc1C(=O)Nc1ccccc1-c1ccc(Br)cc1 [Example 2] | 90 | 3.71 | 100 | 100 |  |  | 
Cc1occc1C(=O)Nc1ccccc1-c1cccc(Cl)c1 [Example 4] | 95 | 3.58 | 98 | 100 | 100 |  | 
Cc1occc1C(=O)Nc1ccccc1-c1ccc(F)c(Cl)c1 [Example 10] |  | 3.46 | 95 | 100 | 100 |  | 
Cc1occc1C(=O)Nc1ccccc1-c1ccc(C(F)(F)F)cc1 [Example 3] | 100 | 3.53 | 100 | 100 | 93 |  | 
Cc1occc1C(=O)Nc1ccccc1-c1ccc(OC(F)(F)F)cc1 [Example 5] |  | 3.91 | 92 | 100 | 93 |  | 
CSc1ccc(-c2ccccc2NC(=O)c2ccoc2C)cc1 [Example 6] |  | 3.63 | 95 | 100 | 92 |  | 
Cc1occc1C(=O)Nc1ccccc1-c1ccc(Cl)c(Cl)c1 [Example 15] |  | 3.73 | 96 | 100 | 100 | 90 | 
Cc1occc1C(=O)Nc1ccccc1-c1ccc(Cl)cc1F [Example 1, N-(4′-chloro-2′-fluoro-1,1′-biphenyl-2-yl)-2-methyl-3-furamide] |  |  |  |  |  |  | 3.38
Cc1occc1C(=O)Nc1ccccc1-c1ccc(Cl)c(F)c1 [Example 9] |  | 3.43 | 100 | 100 | 97 |  | 
Cc1occc1C(=O)Nc1ccccc1-c1ccc(F)c(F)c1 [Example 8] |  | 3.22 | 82 | 100 | 85 |  | 
